Reference: PMC2904697, “A Screen for Kinetochore-Microtubule Interaction Inhibitors Identifies Novel Antitubulin Compounds” (PLoS ONE, 2010)

Legend:
[1] = tested on: recombinant CLIP-170^488 binding to taxol-stabilized MTs; assay: CLIP-170^488 binding to taxol-stabilized MTs (specificity control); conditions: compound B at 50 µmol/l
Source text: Figure 2 Compound B prevents the recombinant Ndc80 kinetochore complex from binding to taxol-stabilized microtubules. Effect of compound B (50 µmol/l) on binding of the Ndc80^488 complex to rhodamine-labeled, taxol-stabilized MTs as assayed using inverted wide-field fluorescence microscopy. The scale bar represents 4 µm (A). Structure of compound B; 6-furan-2-yl-3-methyl-4-oxo-4,5,6,7-tetrahydro-1H-indole-2-carboxylic acid (tetrahydro-furan-2-yl)methyl ester (B). Measurement of the IC50 value of compound B using total internal reflection fluorescence microscopy. The scale bar represents 4 µm (C). Compound B (50 µmol/l) prevented MT-associating protein CLIP-170^488, used as a specificity control, from binding to taxol-stabilized MTs. The scale bar represents 4 µm (D). […] The scale bar represents 4 µm (E).
A compound inhibiting the Ndc80^488 complex-MT interaction could act either against the complex or against the MTs. To probe the specificity of compound B toward the Ndc80^488 complex, we examined its ability to inhibit MT binding of recombinant CLIP-170^488, a MT plus-end tracking protein.

[2] = tested on: hTERT RPE-1, HCT-116 and A2780 cell lines; assay: Viability analysis (CellTiter 96 Assay); assay type: cell-based; conditions: Homo sapiens, 72 h, A2780 and HCT-116 cells, 3 d, 1–1000 nmol/l, read-out: IC50 for killing of cells (viability)
Procedure: RPE, a telomerase-immortalized cell line derived from retinal pigment epithelium, served as the non-cancer control. Antitubulin agents colchicine and nocodazole were used as controls for drug activity. The RPE, A2780, and HCT-116 cells were efficiently killed by compound A8 and the control drugs.
Viability analysis in the presence of antitubulin drugs was performed on hTERT RPE-1 (ATCC), HCT-116 (ATCC), and A2780 (EACC) cell lines. Cell lines were authenticated by PCR [22]. Absence of eight commonly encountered mycoplasma species was confirmed by PCR [23]. Experiments were performed with freshly thawed cells, which were seeded in 96-well MICROTEST tissue culture plates (Falcon) at ∼500 cells/well and grown at 37°C. After 6 h, nocodazole, colchicine or compound A8 were added (1–1000 nmol/l). The cells were incubated for 3 d at 37°C and then assayed for viability (CellTiter 96 Assay, Promega).

Effect on binding of CLIP-170^488 to taxol-stabilized MTs [1]	Compound	IC50 [2] [nM]
prevented	Cc1c(C(=O)OCC2CCCO2)[nH]c2c1C(=O)CC(c1ccco1)C2 (centres unmarked) [compound B, 6-furan-2-yl-3-methyl-4-oxo-4,5,6,7,-tetrahydro-1H-indole-2-carboxylic acid tetrahydro-furan-2-ylmethyl ester]	–
–	CCSCCOC(=O)c1[nH]c2c(c1C)C(=O)C[C@@H](c1ccco1)C2 [A8]	25
